Test results from patent publication US3991193A, “Derivatives of 4(3H)-quinazolone, pharmaceutical compositions thereof and methods of use” (Roussel-UCLAF, priority 1973, dated 1976).
Where two headings read alike, the source gives them in different places.

Key:
[1] = system: mouse; experiment: Anticonvulsant Test Against Electroshock in Mouse; type: in vivo; conditions: 0.5 h, 30 min. after dosing, electroshock 55 mA, read-out: ED50 (dose protecting 50% of the mice from tonic extension of hind limbs)
Procedure: 3. Anticonvulsant Test Against Electroshock
Groups of ten mice received p.o. or i.p. the test compound at various dose levels, a control group received the vehicle alone. 30 min. after dosing, each group was then shocked via auricular electrodes using the electroshock apparatus (Ugo Basile ECT apparatus for small mammals) using the following parameters: […]
______________________________________
The number of mice which underwent tonic extension of hind limbs was noted. The dose protecting 50% of the mice (ED50) was estimated.

[2] = system: mouse; experiment: Rotating Drum Test in Mouse; type: in vivo; conditions: 0.5 h, 30 min. after dosing, 2 min. test period, read-out: ED50 (dose causing 50% of the mice to fall off the drum)
Procedure: Groups of ten mice received p.o. or i.p. the test compound at various dose levels, a control group receiving the vehicle alone by each route .30 min. after dosing each group of mice was placed on a 30 cm diameter rotating drum revolving at 1 revolution/minute. The mice were placed on the drum against its direction of movement and the number of mice falling off within a 2 min. test period was noted. From the results obtained a dose response line was constructed and the dose causing 50% of the mice to fall off the drum (ED50) was estimated.

[3] = system: rat; experiment: Acute Toxicity Test in Rat
Procedure: (§1) II. The activity of 2-methyl-3-(o-cyanophenyl)-4(3H)-quinazolone hydrochloride was also investigated in rat by the following tests.
(§2) Groups of ten rats were dosed p.o. or i.p. with various doses of the test compound and after 24 hours were assessed for mortality.
(§3) The activity of Methaqualone was investigated in the same conditions.

[4] = Acute Toxicity Test in Rat; conditions: in vivo
Procedure: as §1, §2, §3

[5] = system: mouse; experiment: Righting Reflex Test in Mouse; type: in vivo; conditions: for ED50: at time of peak activity, read-out: ED50 (dose producing loss of righting reflex in 50% of a group of mice)
Procedure: Groups of ten mice received the test compound orally or i.p. at various dose levels, a control group receiving vehicle alone. All mice were housed individually in glass beakers and were assessed for loss of righting reflex at 1/4, 1/2, 1, 2, 4 and 6 hours after dosing. […] From the results obtained a dose response line was constructed and the dose producing 50% loss of righting reflex was estimated for each observation time. This ED50 value (the dose producing loss of righting reflex in 50% of a group of mice) was quoted for the time of peak activity.

[6] = Acute Toxicity Tests in mouse; conditions: in vivo
Procedure: 1. The activity of 2-methyl-3-(o-cyanophenyl)-4(3H)-quinazolone hydrochloride was investigated in the mouse by the following 5 tests.
Acute toxicities by p.o and i.p. routes were conducted using groups of ten mice at various dose levels. Groups dosed p.o. and i.p. were assessed for mortality at 24 hours.
The activity of methaqualone (2-methyl-3-(o-tolyl)-4-quinazolone) was investigated under the same conditions by using the test procedures indicated in the five tests above.

[7] = system: rat; experiment: Righting Reflex Test in Rat; type: in vivo, Sprague-Dawley rat; conditions: for ED50: male Sprague-Dawley rat, read-out: ED50 (loss of righting reflex)
Procedure: Groups of ten male Sprague-Dawley rats received the test compound i.p. or p.o. at various doses. The animals dosed i.p. were assessed for loss of righting reflex immediately after dosing and those dosed p.o. were assessed at 1/4, 1/2, 1, 2, 4 and 6 hours after dosing.

[8] = system: mouse; experiment: Potentiation of Hexobarbitone Sleeping Time in Mouse; type: in vivo; conditions: i.p., Hexobarbitone Sodium 65 mg/kg i.v.
Procedure: 4. Potentiation of Hexobarbitone Sleeping Time
A group of eight control mice received a dose of 65 mg/kg Hexobarbitone Sodium i.v. and subsequent sleeping times were recorded. A time value equivalent to mean sleeping time plus two standard deviations was established as a cut-off point. Other groups of eight mice received in identical dose of Hexobarbitone Sodium and at half the means control sleeping time were given various doses of the test compound i.p. The number of mice in each group asleep at the cut-off was recorded. A dose response curve was constructed and the dose at which 50% of the mice remained asleep at this cut-off point (ED50) was estimated.

[9] = ip, i.p., assessed immediately after dosing
[10] = po, p.o., assessed 1/4 to 6 hours after dosing

What does the source list for `Cc1nc2ccccc2c(=O)n1-c1ccccc1C#N.Cl` [2-methyl-3-(o-cyanophenyl)-4(3H)-quinazolone hydrochloride]?
ED50 ([1]; ip, i.p.): 10 mg/kg; ED50 ([1]; po, p.o.): 9 mg/kg; ED50 ([2]; ip, i.p.): 26.5 mg/kg; ED50 ([2]; po, p.o.): 23 mg/kg; toxicity compared with Methaqualone [3]: less toxic; LD50 at 24 h ([4]; ip): > 300 mg/kg; LD50 at 24 h ([4]; po): > 1000 mg/kg; ED50 ([5]; ip): 47 mg/kg; oral hypnotic effectiveness ([5]; oral): very effective oral hypnotic in mouse; ED50 ([5]; po): 112 mg/kg; LD50 at 24 h ([6]; ip): 570 mg/kg; LD50 at 24 h ([6]; po): 1600 mg/kg; ED50 [7, 9]: 28 mg/kg; ED50 [7, 10]: 106 mg/kg; effectiveness compared with Methaqualone ([7]; rat): much more effective than Methaqualone in the rat

Which ED50 ([1]; ip, i.p.) does the source give for `Cc1ccccc1-n1c(C)nc2ccccc2c1=O` [Methaqualone, 2-methyl-3-(o-tolyl)-4-quinazolone, reference compound] here?
The ED50 was 21.5 mg/kg.

What about the ED50 ([1]; po, p.o.) of the same compound?
Its ED50 is 42 mg/kg.

What about the ED50 ([2]; ip, i.p.) of the same compound?
Its ED50 is 30 mg/kg.

What about the ED50 ([2]; po, p.o.) of the same compound?
The ED50 was 49 mg/kg.

And the “ED50 (dose at which 50% of the mice remained asleep at the cut-off point)” value [8]?
The value was 25 mg/kg.

What about the LD50 at 24 h ([4]; ip) of the same compound?
Its LD50 at 24 h is 190 mg/kg.

What about the LD50 at 24 h ([4]; po) of the same compound?
Its LD50 at 24 h is 440 mg/kg.

And the ED50 ([5]; ip)?
The ED50 was 81 mg/kg.

And the ED50 ([5]; po)?
Its ED50 is 160 mg/kg.

And the LD50 at 24 h ([6]; ip)?
Its LD50 at 24 h is 550 mg/kg.

What about the LD50 at 24 h ([6]; po) of the same compound?
The LD50 at 24 h was 1700 mg/kg.

What about the ED50 [7, 9] of the same compound?
The ED50 was 48 mg/kg.

What about the ED50 [7, 10] of the same compound?
Its ED50 is 170 mg/kg.
